What all share (format): functional
Experiment [1] can be described thus: Antioxidant activity assessed as nitric oxide radical scavenging activity.
Experiment [2] can be described thus: Antioxidant activity assessed as superoxide radical scavenging activity.
Experiment [3] has as its system Radical scavenging activity. Description: Antioxidant activity assessed as DPPH free radical scavenging activity. Background: Loss of DPPH colour is used to gauge radical scavenging.
Experiment [4] in a line: Antioxidant activity assessed as peroxy nitrite free radical scavenging activity.

As usually defined, the IC50 is the concentration that gives 50% inhibition.

Take `OCc1cc(O)ccc1O` [GENTISYL ALCOHOL]: the IC50 in experiment [1] was 0.4 µM; in experiment [2], greater than 50 µM; in experiment [3], 1.4 µM; in experiment [4] it was 2.2 µM.
Regarding `O=C1C=C(CO)[C@H](O)[C@@H]2O[C@H]12` [PARASITENONE], the figures for the IC50 in experiment [3] and in experiment [4] were 57 µM and 52.6 µM, respectively.
Regarding `CC1(C)N([O])C(c2ccc(C(=O)O)cc2)=[N+]([O-])C1(C)C`, the IC50 in experiment [1] came out at 138 µM.
As to `OCc1cc(O)c(O)c(Cl)c1`, the IC50 is 0.5 µM in experiment [1], 11 µM in experiment [2], 0.6 µM in experiment [3] and 3.1 µM in experiment [4].

The record behind these values is ChEMBL document CHEMBL1156408, “Parasitenone, a new epoxycyclohexenone related to gabosine from the marine-derived fungus Aspergillus parasiticus” (J Nat Prod, 2002).
